Where two headings read alike, the source gives them in different places.
Columns and labels:
IL-6/STAT3 signaling = conditions: background statement; cited from earlier work
LNCaP-IL6 cells = assay: WST-1 proliferation assay, LNCaP-IL6 cells; assay type: cell-based, human
Protocol: (§1) The human prostate cancer cell lines DU145, LNCaP (from the American Type culture Collection, ATCC) and long-term interleukin-6 (IL-6) stimulated LNCaP cells (LNCaP-IL6 cells) (Hobisch, Ramoner et al. 2001) were used. The cells were cultured in RPMI 1640 medium supplemented with 10% FBS and 1% penicillin-streptomycin. All cells were incubated at 37° C. in a humidified atmosphere of […] and 5% CO2.
(§2) WST-1 proliferation assay was performed to study the effects of the test items on the proliferation and viability of cultured prostate cancer cells. LNCaP and DU145 cells were cultured in 96-well plates at the density of 2 000 cells/well in 200 μl of medium. Cells were allowed to set for 24 h. The cells were treated with 0, 2.5, 5 or 10 μM of the specific substance for 24 h and 48 h. Samples were made in triplicate. 20 μl WST-1 solution (Roche Applied Science, Mannheim, Germany) was added per well and incubated at 37° C. for 4 h. The absorbance of each well was measured using a scanning multiwell spectrophotometer, ELISA reader at a wavelength of 450 nm and reference wavelength of 690 nm. The results are presented as percent of untreated control cells or the absorbance value.

[1] = tested on: STAT-3 transcription factor; assay: STAT3 inhibition, luciferase reporter (4xM67 pTATA TK-Luc) in HeLa cells stimulated with γ-Interferon; assay type: cell-based; conditions: γ-Interferon 8 h, luciferase activity, read-out: Anti STAT3 IC50
Protocol: HeLa cells (4×10^4/ml) were transiently transfected with a luciferase reporter plasmid (4×M67 pTATA TK-Luc) driven by artificial promoter containing 4 repeated M67 binding sites in tandem for the STAT-3 transcription factor. The transfections were performed for 24 h using Roti-Fect reagent (Carl Roth, Karlsruhe, Germany) according to the manufacturer's recommendations. After incubation with different concentrations of the extracts for 30 min the transfected cells were stimulated for 8 h with γ-Interferon. Then, the cells were lysed in 25 mM Tris-phosphate pH 7.8, 8 mM MgCl2, 1 mM DTT, 1% Triton X-100, and 7% glycerol. Luciferase activity was measured as described for 5.1 cells.
γ-Interferon induces an average of 5-6 fold induction of the luciferase activity compared to non stimulated cells and this represent the index of transactivation that is represented in our experiment as the maximum levels of γ-Interferon-induced STAT-3 activation (100%). Results below represent the IC50 for each compound in this assay. The IC50 means the concentration of each compound that reduces luciferase activity by 50% and it was calculated by GraphPad software.

NF-κB = assay: NF-κB-dependent transcriptional activity, Jurkat-LTR-Luc (Jurkat 5.1) cells stimulated with TNF-α; assay type: cell-based; conditions: TNF-α (2 ng/ml) 6 h, luciferase activity, read-out: IC50 anti-NF-κB
Protocol: The potency of (−)-Galiellalactone and compound examples of the invention in inhibiting NF-κB-dependent transcriptional activity was assayed in a Jurkat-LTR-Luc cell line. This cellular model have been widely used for the screening of natural and synthetic NF-κB inhibitors (Appendino et al, J Nat Prod. 2007, 70(4), 608-612; J Nat Prod. 2006, 69(7), 1101-1104; Marquez et al, Antiviral Res. 2005, 66(2-3), 137-145) Jurkat 5.1 cells were preincubated for 30 min with increasing concentrations of the compounds dissolved in DMSO followed by stimulation with TNF-α (2 ng/ml) for 6 h. Cells were washed twice in PBS and lysed in 25 mM Tris-phosphate, pH 7.8, 8 mM MgCl2, 1 mM DTT, 1% Triton X-100, and 7% glycerol for 15 min at room temperature. Then the lysates were spun down and the supernatant was used to measure luciferase activity using an Autolumat LB 9510 (Berthold Technologies). Protein concentration was determined by the Bradford method (Bio-Rad, Richmond, Calif.). Results below represent the 1050 for each compound in this assay.

DU145 = assay: WST-1 proliferation assay, DU145 cells (Example 16); assay type: cell-based, human
Protocol: as §1, §2

SMILES | inhibition of IL-6/STAT3 signaling (IL-6/STAT3 signaling) | % Proliferation (vs control) 24 h LNCaP-IL6 (LNCaP-IL6 cells; 2.5 uM) [%] | % Proliferation (vs control) 48 h LNCaP-IL6 (LNCaP-IL6 cells; 2.5 uM) [%] | % Proliferation (vs control) 24 h LNCaP-IL6 (LNCaP-IL6 cells; 5 uM) [%] | % Proliferation (vs control) 48 h LNCaP-IL6 (LNCaP-IL6 cells; 5 uM) [%] | % Proliferation (vs control) 24 h LNCaP-IL6 (LNCaP-IL6 cells; 10 uM) [%] | % Proliferation (vs control) 48 h LNCaP-IL6 (LNCaP-IL6 cells; 10 uM) [%] | IC50 [1] [µM] | IC50 (NF-κB) [µM] | % Proliferation (vs control) 24 h DU145 (DU145; 2.5 uM) [%] | % Proliferation (vs control) 48 h Du145 (DU145; 2.5 uM) [%] | % Proliferation (vs control) 24 h DU145 (DU145; 5 uM) [%] | % Proliferation (vs control) 48 h Du145 (DU145; 5 uM) [%] | % Proliferation (vs control) 24 h DU145 (DU145; 10 uM) [%] | % Proliferation (vs control) 48 h Du145 (DU145; 10 uM) [%] | IC50 ([1]; Homo sapiens) [µM] | IC50 (NF-κB; Homo sapiens) [µM]
C[C@@H]1C=C2C(=O)O[C@@H]3CC[C@H](C1)C23O (single isomer, unassigned; (-)) [(−)-Galiellalactone, reference compound] | submicromolar | 90.91 | 96.78 | 68.76 | 68.76 | 77.11 | 23.22 | 7.7 | 5.5 | 84.24 | 76.36 | 63.19 | 38.51 | 48.44 | 22.24 | – | –
C[C@H]1C=C2C(=O)OC3C(C)(C)C[C@H](C1)[C@]23O (stereo partly drawn) [Example 1, 2a^1-hydroxy-4,7,7-trimethyl-4,5,5a,6,7,7a-hexahydroindeno[1,7-bc]furan-2(2a^1H)-one] | – | 65.41 | 52.42 | 68.95 | 26.28 | 69.23 | 16.19 | – | – | 80.19 | 67.45 | 68.82 | 35.62 | 54.07 | 22.77 | 2.1 | 2.66
C[C@H]1C=C2C(=O)OC3[C@H](c4ccccc4)C[C@H](C1)[C@]23O (stereo partly drawn) [Example 2, 2a^1-hydroxy-4-methyl-7-phenyl-4,5,5a,6,7,7a-hexahydroindeno[1,7-bc]furan-2(2a^1H)-one] | – | 81.79 | 79.56 | 81.21 | 57.14 | 70.45 | 20.19 | – | – | 90.64 | 68.04 | 68.55 | 34.07 | 63.86 | 30.26 | 1.18 | 0.33
C[C@H]1C=C2C(=O)OC3[C@H](Cc4ccccc4)C[C@H](C1)[C@]23O (stereo partly drawn) [Example 3, 7-benzyl-2a^1-hydroxy-4-methyl-4,5,5a,6,7,7a-hexahydroindeno[1,7-bc]furan-2(2a^1H)-one] | – | 57.10 | 27.82 | 59.00 | 18.15 | 53.01 | 12.49 | – | – | 56.33 | 31.10 | 52.11 | 18.38 | 44.48 | 14.45 | 2.87 | 1.26
